IC50 data for 34 compounds are collected here from patent US11957687B2 (REGENERON PHARMACEUTICALS, INC., priority 2019, dated 2024).

The IC50 is the point on the concentration scale where inhibition reaches its midpoint.

Some results are limits rather than exact numbers.

Chain of HSD17B13 (Q7Z5P4 other isoform, or with tags, fused parts or gaps): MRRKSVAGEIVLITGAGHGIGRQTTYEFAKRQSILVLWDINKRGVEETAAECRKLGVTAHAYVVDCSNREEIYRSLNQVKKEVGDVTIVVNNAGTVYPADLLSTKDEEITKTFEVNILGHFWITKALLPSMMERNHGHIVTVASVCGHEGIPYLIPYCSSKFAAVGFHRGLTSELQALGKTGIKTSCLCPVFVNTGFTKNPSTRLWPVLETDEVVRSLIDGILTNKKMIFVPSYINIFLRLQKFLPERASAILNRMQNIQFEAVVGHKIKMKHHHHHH

The assay concerns the target HSD17B13 (Homo sapiens (Human), UniProt Q7Z5P4). Description: HSD17B13 enzymatic inhibition assay (150 nM or 50 nM HSD17B13). The format is biochemical. The settings on record: 50 nM HSD17B13; read-out: Inhibition of 50 nM of HSD17B13 IC50.
As for `Cc1ccc2c(c1)C(NC(=O)c1ccc(C(F)F)[nH]c1=O)c1ccccc1O2` (stereo not shown) [Compound 276, 6-(difluoromethyl)-N-(2-methyl-9H-xanthen-9-yl)-2-oxo-1,2-dihydropyridine-3-carboxamide], the 50% inhibitory concentration (IC50) worked out at 2620 nM. Consider `O=C(NC1c2ccccc2Sc2ccccc21)c1ccc(C(F)F)[nH]c1=O` [Compound 277, 6-(difluoromethyl)-2-oxo-N-(9H-thioxanthen-9-yl)-1,2-dihydropyridine-3-carboxamide], for which the IC50 was determined as 2710 nM.

`O=C(NC1c2ccccc2Oc2ccccc21)c1ccc(C(F)F)[nH]c1=O` [Compound 278, 6-(difluoromethyl)-2-oxo-N-(9H-xanthen-9-yl)-1,2-dihydropyridine-3-carboxamide]: the IC50 was 2000 nM. Take `Cc1ccc2c(c1)Oc1ccccc1C2NC(=O)c1ccc(C(F)F)[nH]c1=O` (stereo not shown) [Compound 279, 6-(difluoromethyl)-N-(3-methyl-9H-xanthen-9-yl)-2-oxo-1,2-dihydropyridine-3-carboxamide]: the IC50 was 180 nM. As to `Cc1ccc2c(c1)Oc1cc(C)ccc1C2NC(=O)c1ccc(C(F)F)[nH]c1=O` [Compound 280, 6-(difluoromethyl)-N-(3,6-dimethyl-9H-xanthen-9-yl)-2-oxo-1,2-dihydropyridine-3-carboxamide], the IC50 was 110 nM.

Take `Cc1ccc2c(c1)C(NC(=O)c1ccc(C(F)F)[nH]c1=O)c1ccccc1S2` (stereo not shown) [Compound 281, 6-(difluoromethyl)-N-(2-methyl-9H-thioxanthen-9-yl)-2-oxo-1,2-dihydropyridine-3-carboxamide]: the IC50 stood at 1880 nM. To `COc1ccc(-c2nc(SCc3cccc(C(F)(F)F)c3)[nH]c(=O)c2C#N)cc1` [Compound 283, 4-(4-methoxyphenyl)-6-oxo-2-((3-(trifluoromethyl)benzyl)thio)-1,6-dihydropyrimidine-5-carbonitrile] belongs 4760 nM; to `CCCC1Cc2cc(C)ccc2C1NC(=O)c1ccc(C(F)(F)F)[nH]c1=O` (stereo not shown) [Compound 287, N-(5-methyl-2-propyl-2,3-dihydro-1H-inden-1-yl)-2-oxo-6-(trifluoromethyl)-1,2-dihydropyridine-3-carboxamide], 60 nM. Turning to `Cc1ccc2c(c1)C(NC(=O)c1ccc(C(F)(F)F)[nH]c1=O)C(C)C2` (stereo not shown) [Compound 288, N-(2,6-dimethyl-2,3-dihydro-1H-inden-1-yl)-2-oxo-6-(trifluoromethyl)-1,2-dihydropyridine-3-carboxamide], the IC50 worked out at 190 nM.

`CCC1Cc2ccc(C)cc2C1NC(=O)c1ccc(C(F)(F)F)[nH]c1=O` (stereo not shown) [Compound 290, N-(2-ethyl-6-methyl-2,3-dihydro-1H-inden-1-yl)-2-oxo-6-(trifluoromethyl)-1,2-dihydropyridine-3-carboxamide]: the half-inhibitory concentration (IC50) turned out to be 80 nM. As for `COc1ccc2c(c1)CCC(C)C2NC(=O)c1ccc(C(F)(F)F)[nH]c1=O` (stereo not drawn) [Compound 292, N-(6-methoxy-2-methyl-1,2,3,4-tetrahydronaphthalen-l-yl)-2-oxo-6-(trifluoromethyl)-1,2-dihydropyridine-3-carboxamide], the IC50 is 220 nM. The figure for `Cc1ccc2c(c1)CC(C)C2NC(=O)c1ccc(C(F)(F)F)[nH]c1=O` (stereo not shown) [Compound 296, N-(2,5-dimethyl-2,3-dihydro-1H-inden-1-yl)-2-oxo-6-(trifluoromethyl)-1,2-dihydropyridine-3-carboxamide] is 170 nM; for `CCC[C@@H]1C[C@H](NC(=O)c2ccc(C(F)(F)F)[nH]c2=O)C[C@H](CCC)O1` [Compound 303, N-((2R,4R,6S)-2,6-dipropyltetrahydro-2H-pyran-4-yl)-2-oxo-6-(trifluoromethyl)-1,2-dihydropyridine-3-carboxamide] it is 3060 nM. The figure for `Cc1ccc2c(c1)[C@H](N)CC[C@H]2NC(=O)c1ccc(C(F)(F)F)[nH]c1=O` [Compound 304, N-((1R,4R)-4-amino-6-methyl-1,2,3,4-tetrahydronaphthalen-1-yl)-2-oxo-6-(trifluoromethyl)-1,2-dihydropyridine-3-carboxamide] is greater than 10000 nM. In the case of `Cc1ccc2c(c1)[C@@H](N)CC[C@H]2NC(=O)c1ccc(C(F)(F)F)[nH]c1=O` [Compound 305, N-((1R,4S)-4-amino-6-methyl-1,2,3,4-tetrahydronaphthalen-1-yl)-2-oxo-6-(trifluoromethyl)-1,2-dihydropyridine-3-carboxamide], the IC50 is 7850 nM. The figure for `Cc1ccc2sc(C)c(NC(=O)c3ccc(C(F)(F)F)[nH]c3=O)c2c1` [Compound 310, N-(2,5-dimethylbenzo[b]thiophen-3-yl)-2-oxo-6-(trifluoromethyl)-1,2-dihydropyridine-3-carboxamide] is 680 nM. As to `NCc1cccc2c1CCCC2NC(=O)c1ccc(C(F)(F)F)[nH]c1=O` (stereo not shown) [Compound 313, N-(5-(aminomethyl)-1,2,3,4-tetrahydronaphthalen-1-yl)-2-oxo-6-(trifluoromethyl)-1,2-dihydropyridine-3-carboxamide], the IC50 is greater than 10000 nM. On to `CC(C)(C)OC(=O)NCCN1Cc2ccccc2C(NC(=O)c2ccc(C(F)(F)F)[nH]c2=O)C1` (stereo not shown) [Compound 314, tert-butyl (2-(4-(2-oxo-6-(trifluoromethyl)-1,2-dihydropyridine-3-carboxamido)-3,4-dihydroisoquinolin-2(1H)-yl)ethyl)carbamate], for which the IC50 came out at 5520 nM. With `O=C(NC1CN(CCOCc2ccccc2)Cc2ccccc21)c1ccc(C(F)(F)F)[nH]c1=O` (stereo not shown) [Compound 315, N-(2-(2-(benzyloxy)ethyl)-1,2,3,4-tetrahydroisoquinolin-4-yl)-2-oxo-6-(trifluoromethyl)-1,2-dihydropyridine-3-carboxamide], the IC50 worked out at 960 nM. To `Cc1ccc2c(c1)N(CCOCc1ccccc1)CCC2NC(=O)c1ccc(C(F)(F)F)[nH]c1=O` (stereo not shown) [Compound 316, N-(1-(2-(benzyloxy)ethyl)-7-methyl-1,2,3,4-tetrahydroquinolin-4-yl)-2-oxo-6-(trifluoromethyl)-1,2-dihydropyridine-3-carboxamide] belongs 5960 nM.

Take `CC(C)(C)OC(=O)N1Cc2ccccc2C(NC(=O)c2ccc(C(F)(F)F)[nH]c2=O)C1` (stereo not shown) [Compound 317, tert-butyl 4-(2-oxo-6-(trifluoromethyl)-1,2-dihydropyridine-3-carboxamido)-3,4-dihydroisoquinoline-2(1H)-carboxylate]: the half-inhibitory concentration (IC50) was found to be 4030 nM.

With `O=C(NC1c2ccncc2Oc2ccc(O)cc21)c1ccc(C(F)(F)F)[nH]c1=O` (stereo not shown) [Compound 318, N-(7-hydroxy-5H-chromeno[2,3-c]pyridin-5-yl)-2-oxo-6-(trifluoromethyl)-1,2-dihydropyridine-3-carboxamide], the IC50 worked out at 7250 nM. Regarding `COc1ccc2c(c1)C(NC(=O)c1ccc(C(F)(F)F)[nH]c1=O)c1ccncc1O2` (stereo not shown) [Compound 319, N-(7-methoxy-5H-chromeno[2,3-c]pyridin-5-yl)-2-oxo-6-(trifluoromethyl)-1,2-dihydropyridine-3-carboxamide], the IC50 amounted to 830 nM. To `O=C(NC1c2ccncc2Oc2cc(O)ccc21)c1ccc(C(F)(F)F)[nH]c1=O` (stereo not shown) [Compound 320, N-(8-hydroxy-5H-chromeno[2,3-c]pyridin-5-yl)-2-oxo-6-(trifluoromethyl)-1,2-dihydropyridine-3-carboxamide] belongs 600 nM; to `COc1ccc2c(c1)Oc1cccnc1C2NC(=O)c1ccc(C(F)(F)F)[nH]c1=O` (stereo not shown) [Compound 322, N-(7-methoxy-10H-chromeno[3,2-b]pyridin-10-yl)-2-oxo-6-(trifluoromethyl)-1,2-dihydropyridine-3-carboxamide], 300 nM. As for `Cc1cc2c(cn1)C(NC(=O)c1ccc(C(F)(F)F)[nH]c1=O)c1ccccc1O2` (stereo not shown) [Compound 325, N-(3-methyl-10H-chromeno[3,2-c]pyridin-10-yl)-2-oxo-6-(trifluoromethyl)-1,2-dihydropyridine-3-carboxamide], the IC50 amounted to 180 nM. On to `Cc1ccc2c(c1)Oc1cccnc1C2NC(=O)c1ccc(C(F)(F)F)[nH]c1=O` (stereo not shown) [Compound 326, N-(7-methyl-10H-chromeno[3,2-b]pyridin-10-yl)-2-oxo-6-(trifluoromethyl)-1,2-dihydropyridine-3-carboxamide], for which the IC50 is 60 nM. To `Cc1cccc2c1C(NC(=O)c1ccc(C(F)(F)F)[nH]c1=O)c1cnccc1O2` (stereo not shown) [Compound 329, N-(9-methyl-10H-chromeno[3,2-c]pyridin-10-yl)-2-oxo-6-(trifluoromethyl)-1,2-dihydropyridine-3-carboxamide] belongs 1680 nM; to `O=C(NC1c2ccccc2Oc2cccnc21)c1ccc(C(F)(F)F)[nH]c1=O` (stereo not shown) [Compound 331, N-(10H-chromeno[3,2-b]pyridin-10-yl)-2-oxo-6-(trifluoromethyl)-1,2-dihydropyridine-3-carboxamide], 600 nM; to `O=C(NC1c2ccccc2Oc2ccncc21)c1ccc(C(F)(F)F)[nH]c1=O` (stereo not shown) [Compound 332, N-(10H-chromeno[3,2-c]pyridin-10-yl)-2-oxo-6-(trifluoromethyl)-1,2-dihydropyridine-3-carboxamide], 1290 nM.

`O=C(NC1c2ccccc2Oc2cnccc21)c1ccc(C(F)(F)F)[nH]c1=O` (stereo not shown) [Compound 333, N-(5H-chromeno[2,3-c]pyridin-5-yl)-2-oxo-6-(trifluoromethyl)-1,2-dihydropyridine-3-carboxamide]: the IC50 is 740 nM.

On to `O=C(NC1c2ccccc2Oc2ncccc21)c1ccc(C(F)(F)F)[nH]c1=O` (stereo not shown) [Compound 334, N-(5H-chromeno[2,3-b]pyridin-5-yl)-2-oxo-6-(trifluoromethyl)-1,2-dihydropyridine-3-carboxamide], for which the IC50 was found to be 2390 nM. `O=C(NC1CCCc2c(CCc3ccccc3)cccc21)c1ccc(C(F)(F)F)[nH]c1=O` (stereo not shown) [Compound 335, 2-oxo-N-(5-phenethyl-1,2,3,4-tetrahydronaphthalen-1-yl)-6-(trifluoromethyl)-1,2-dihydropyridine-3-carboxamide]: the IC50 is 4470 nM. For the compound `CCN1CCC(NC(=O)c2ccc(C(F)(F)F)[nH]c2=O)c2ccc(C)cc21` (stereo not shown) [Compound 336, N-(1-ethyl-7-methyl-1,2,3,4-tetrahydroquinolin-4-yl)-2-oxo-6-(trifluoromethyl)-1,2-dihydropyridine-3-carboxamide], the IC50 amounted to 5790 nM.
